Measured values: ChEMBL document CHEMBL4422651, “Revisiting tubercidin against kinetoplastid parasites: Aromatic substitutions at position 7 improve activity and reduce toxicity” (Eur J Med Chem, 2019)
Calls of active or inactive are those of the source. The rule behind the calls is not given here.

What was measured:
[1] = system: Trypanosoma brucei brucei; test: Antitrypanosomal activity against Trypanosoma brucei brucei Squib 427 after 48 hrs by alamar blue assay; format: functional, organism-based; conditions: Squib 427, 48 h
CYP450 [2] = test: Drug metabolism in mouse liver S9 fraction assessed as CYP450-mediated metabolism by measuring parent compound remaining at 5 uM measured after 30 mins in presence of NADPH by UPLC analysis; format: ADME, subcellular; conditions: read-out: Stability
[3] = system: UDP-glucuronosyltransferases (UGTs); test: Drug metabolism in human liver S9 fraction assessed as UGT-mediated metabolism by measuring parent compound remaining at 5 uM measured after 30 mins in presence of UDPGA by UPLC analysis; format: ADME, subcellular; conditions: s9, 0.5 h
[4] = Inhibition of [3H]-adenosine transport at Trypanosoma brucei Adenosine transporter P1 expressed in pentamidine/diminazene/melaminophenyl arsenical resistant Trypanosoma brucei B48 bloodstream forms after 60 secs by scintillation counting analysis
Trypanosoma cruzi = test: Antitrypanosomal activity against nifurtimox-sensitive Trypanosoma cruzi Tulahuen CL2 harboring beta-galactosidase infected in human MRC5 cells after 7 days by resazurin dye-based assay; format: functional, organism-based
CYP450 [5] = test: Drug metabolism in mouse liver S9 fraction assessed as CYP450-mediated metabolism by measuring parent compound remaining at 5 uM measured immediately in presence of NADPH by UPLC analysis; format: ADME, subcellular; conditions: read-out: Stability
Trypanosoma brucei [6] = test: Antitrypanosomal activity against wild type Trypanosoma brucei Lister 427 after 48 hrs by alamar blue assay; format: functional, organism-based; conditions: Lister 427, 48 h
UGT [7] = test: Drug metabolism in mouse liver S9 fraction assessed as UGT-mediated metabolism by measuring parent compound remaining at 5 uM measured after 15 mins in presence of UDPGA by UPLC analysis; format: ADME, subcellular; conditions: read-out: Stability
CYP450 [8] = test: Drug metabolism in rat liver S9 fraction assessed as CYP450-mediated metabolism by measuring parent compound remaining at 5 uM measured after 30 mins in presence of NADPH by UPLC analysis; format: ADME, subcellular; conditions: read-out: Stability
UGT [9] = molecular target: T1, UGT (Homo sapiens, UniProt O60656+O75310+O75795+P06133+P0DTE4+P0DTE5+P16662+P19224+P22309+P22310+P35503+P35504+P36537+P54855+Q6UWM9+Q9BY64+Q9HAW7+Q9HAW8+Q9HAW9); test: Drug metabolism in human liver S9 fraction assessed as UGT-mediated metabolism by measuring parent compound remaining at 5 uM measured immediately in presence of UDPGA by UPLC analysis; format: ADME, subcellular; conditions: read-out: Stability
CYP450 [10] = molecular target: T2, CYP450 (Homo sapiens, UniProt P04798+P05177+P05181+P08684+P10632+P10635+P11509+P11712+P13584+P20813+P20815+P20853+P24462+P24903+P33260+P33261+P51589+P78329+P98187+Q02928+Q08477+Q16678+Q16696+Q5TCH4+Q6VVX0+Q7Z449+Q8TAV3+Q96SQ9+Q9HB55); test: Drug metabolism in human liver S9 fraction assessed as CYP450-mediated metabolism by measuring parent compound remaining at 5 uM measured after 60 mins in presence of NADPH by UPLC analysis; format: ADME, subcellular; conditions: read-out: Stability
Trypanosoma brucei [11] = test: Antitrypanosomal activity against Trypanosoma brucei TbAT1-KO after 48 hrs by alamar blue assay; format: functional, organism-based
Trypanosoma brucei [12] = test: Resistance factor, ratio of EC50 for Trypanosoma brucei TbAT1-KO to EC50 for wild type Trypanosoma brucei Lister 427; format: functional
[13] = Drug metabolism in rat liver S9 fraction assessed as UGT-mediated metabolism by measuring parent compound remaining at 5 uM measured after 60 mins in presence of UDPGA by UPLC analysis; format: ADME, subcellular; conditions: s9, 1 h
Trypanosoma congolense = test: Antitrypanosomal activity against Trypanosoma congolense by resazurin assay; format: functional, organism-based
UGT [14] = test: Drug metabolism in rat liver S9 fraction assessed as UGT-mediated metabolism by measuring parent compound remaining at 5 uM measured after 15 mins in presence of UDPGA by UPLC analysis; format: ADME, subcellular; conditions: read-out: Stability
[15] = Drug metabolism in rat liver S9 fraction assessed as UGT-mediated metabolism by measuring parent compound remaining at 5 uM measured after 30 mins in presence of UDPGA by UPLC analysis; format: ADME, subcellular; conditions: s9, 0.5 h
CYP450 [16] = test: Drug metabolism in mouse liver S9 fraction assessed as CYP450-mediated metabolism by measuring parent compound remaining at 5 uM measured after 15 mins in presence of NADPH by UPLC analysis; format: ADME, subcellular; conditions: read-out: Stability
CYP450 [17] = molecular target: T2, CYP450; test: Drug metabolism in human liver S9 fraction assessed as CYP450-mediated metabolism by measuring parent compound remaining at 5 uM measured after 30 mins in presence of NADPH by UPLC analysis; format: ADME, subcellular; conditions: read-out: Stability
CYP450 [18] = test: Drug metabolism in rat liver S9 fraction assessed as CYP450-mediated metabolism by measuring parent compound remaining at 5 uM measured immediately in presence of NADPH by UPLC analysis; format: ADME, subcellular; conditions: read-out: Stability
CYP450 [19] = test: Drug metabolism in mouse liver S9 fraction assessed as CYP450-mediated metabolism by measuring parent compound remaining at 5 uM measured after 60 mins in presence of NADPH by UPLC analysis; format: ADME, subcellular; conditions: read-out: Stability
[20] = Drug metabolism in mouse liver S9 fraction assessed as UGT-mediated metabolism by measuring parent compound remaining at 5 uM measured after 60 mins in presence of UDPGA by UPLC analysis; format: ADME, subcellular; conditions: s9, 1 h
[21] = Selectivity index, ratio of EC50 for human MRC5 cells to EC50 for Trypanosoma brucei rhodesiense STIB-900; format: toxicity; conditions: read-out: Ratio EC50
CYP450 [22] = molecular target: T2, CYP450; test: Drug metabolism in human liver S9 fraction assessed as CYP450-mediated metabolism by measuring parent compound remaining at 5 uM measured after 15 mins in presence of NADPH by UPLC analysis; format: ADME, subcellular; conditions: read-out: Stability
UGT [23] = test: Drug metabolism in mouse liver S9 fraction assessed as UGT-mediated metabolism by measuring parent compound remaining at 5 uM measured immediately in presence of UDPGA by UPLC analysis; format: ADME, subcellular; conditions: read-out: Stability
CYP450 [24] = test: Drug metabolism in rat liver S9 fraction assessed as CYP450-mediated metabolism by measuring parent compound remaining at 5 uM measured after 15 mins in presence of NADPH by UPLC analysis; format: ADME, subcellular; conditions: read-out: Stability
[25] = Selectivity index, ratio of EC50 for human MRC5 cells to EC50 for Trypanosoma brucei brucei Squib 427; format: toxicity; conditions: read-out: Ratio EC50
Trypanosoma brucei [26] = test: Resistance factor, ratio of EC50 for isometamidium resistant Trypanosoma brucei […] to EC50 for wild type Trypanosoma brucei Lister 427; format: functional
CYP450 [27] = molecular target: T2, CYP450; test: Drug metabolism in human liver S9 fraction assessed as CYP450-mediated metabolism by measuring parent compound remaining at 5 uM measured immediately in presence of NADPH by UPLC analysis; format: ADME, subcellular; conditions: read-out: Stability
[28] = system: UDP-glucuronosyltransferases (UGTs); test: Drug metabolism in human liver S9 fraction assessed as UGT-mediated metabolism by measuring parent compound remaining at 5 uM measured after 15 mins in presence of UDPGA by UPLC analysis; format: ADME, subcellular; conditions: s9, 0.25 h
Trypanosoma brucei [29] = test: Antitrypanosomal activity against isometamidium resistant Trypanosoma brucei ISMR1 after 48 hrs by alamar blue assay; format: functional, organism-based; conditions: ISMR1, 48 h
UGT [30] = test: Drug metabolism in rat liver S9 fraction assessed as UGT-mediated metabolism by measuring parent compound remaining at 5 uM measured immediately in presence of UDPGA by UPLC analysis; format: ADME, subcellular; conditions: read-out: Stability
MRC5 = test: Cytotoxicity against human MRC5 cells assessed as reduction in cell viability after 3 days by resazurin dye-based assay; conditions: MRC5, 72 h
[31] = Inhibition of [3H]-adenosine transport at Trypanosoma brucei Adenosine transporter P2 expressed in pentamidine/diminazene/melaminophenyl arsenical resistant Trypanosoma brucei B48 bloodstream forms after 60 secs by scintillation counting analysis
Trypanosoma brucei [32] = test: Antitrypanosomal activity against pentamidine/diminazene/melaminophenyl arsenical resistant Trypanosoma brucei B48 after 48 hrs by alamar blue assay; format: functional, organism-based; conditions: B48, 48 h
UGT [33] = molecular target: T1, UGT; test: Drug metabolism in human liver S9 fraction assessed as UGT-mediated metabolism by measuring parent compound remaining at 5 uM measured after 60 mins in presence of UDPGA by UPLC analysis; format: ADME, subcellular; conditions: read-out: Stability
UGT [34] = test: Drug metabolism in mouse liver S9 fraction assessed as UGT-mediated metabolism by measuring parent compound remaining at 5 uM measured after 30 mins in presence of UDPGA by UPLC analysis; format: ADME, subcellular; conditions: read-out: Stability
CYP450 [35] = test: Drug metabolism in rat liver S9 fraction assessed as CYP450-mediated metabolism by measuring parent compound remaining at 5 uM measured after 60 mins in presence of NADPH by UPLC analysis; format: ADME, subcellular; conditions: read-out: Stability
Trypanosoma brucei [36] = test: Resistance factor, ratio of EC50 for pentamidine/diminazene/melaminophenyl arsenical resistant Trypanosoma brucei B48 to EC50 for wild type Trypanosoma brucei Lister 427; format: functional
[37] = system: Trypanosoma brucei rhodesiense; test: Antitrypanosomal activity against Trypanosoma brucei rhodesiense STIB-900 after 48 hrs by alamar blue assay; format: functional, organism-based; conditions: STIB-900, 48 h

Nc1ncnc2c1c(-c1ccccn1)cn2[C@@H]1O[C@H](CO)[C@@H](O)[C@H]1O
EC50 [1]: 310 nM
remaining at 0.5 h, 5 µM (CYP450 [2]): 12.6%
Stability [3]: 121%
Ki [4]: 2540 nM
Activity (Trypanosoma cruzi): inactive
remaining at 0 min, 5 µM (CYP450 [5]): 100%
EC50 (Trypanosoma brucei [6]): 170 nM
remaining at 0.25 h, 5 µM (UGT [7]): 112%
remaining at 0.5 h, 5 µM (CYP450 [8]): 77%
remaining at 0 min, 5 µM (UGT [9]): 100%
remaining at 1 h, 5 µM (CYP450 [10]): 82%
EC50 (Trypanosoma brucei [11]): 400 nM
Ratio EC50 (Trypanosoma brucei [12]): 2.4
Stability [13]: 122%
EC50 (Trypanosoma congolense): 200 nM
remaining at 0.25 h, 5 µM (UGT [14]): 115%
Stability [15]: 125%
remaining at 0.25 h, 5 µM (CYP450 [16]): 36.5%
remaining at 0.5 h, 5 µM (CYP450 [17]): 102%
remaining at 0 min, 5 µM (CYP450 [18]): 100%
remaining at 1 h, 5 µM (CYP450 [19]): 1.9%
Stability [20]: 122%
selectivity ratio [21]: 487
remaining at 0.25 h, 5 µM (CYP450 [22]): 96%
remaining at 0 min, 5 µM (UGT [23]): 100%
remaining at 0.25 h, 5 µM (CYP450 [24]): 89%
selectivity ratio [25]: 49
Ratio EC50 (Trypanosoma brucei [26]): 2.5
remaining at 0 min, 5 µM (CYP450 [27]): 100%
Stability [28]: 123%
EC50 (Trypanosoma brucei [29]): 430 nM
remaining at 0 min, 5 µM (UGT [30]): 100%
EC50 (MRC5): 15100 nM
Ki [31]: 4570 nM
EC50 (Trypanosoma brucei [32]): 270 nM
remaining at 1 h, 5 µM (UGT [33]): 92%
remaining at 0.5 h, 5 µM (UGT [34]): 102%
remaining at 1 h, 5 µM (CYP450 [35]): 31%
Ratio EC50 (Trypanosoma brucei [36]): 1.6
EC50 [37]: 31 nM
